# Patent US20230021483A1, “[…] […] METHOD AND CLASSIFICATION OF PHARMACEUTICAL COMPONENTS BY USING TRANSCRIPTOMES” (National Institutes of Biomedical Innovation, Health and …, priority 2016, published 2023)
# Assays:
# Format in all cases: in vivo, C57BL/6 mice
# [1] = system: preferentially upregulated genes in LV, SP, LN; assay: Z-score-based differential gene expression analysis (adjuvant group- or adjuvant-associated genes, 40 module mapping, TargetMine annotation); details: for Stat1 1450034_at (Group G1, Modules 20) / Tdrd7 1426716_at (Group G1, Modules 20) / Tor1aip2 1418115_s_at (Group G1, Modules 20) / Tor1aip2 1418116_at (Group G1, Modules 20) / Tor1aip2 1435526_at (Group G1, Modules 20) / Trim12a 1437432_a_at (Group G1, Modules 20) / Uba7 1426970_a_at (Group G1, Modules 20) / Adar 1425405_a_at (Group G1, Modules 20) / Adar 1434268_at (Group G1, Modules 20) / Ddx58 1436562_at (Group G1, Modules 20) / Ddx58 1456890_at (Group G1, Modules 20) / Eif2ak2 1422005_at (Group G1, Modules 20) / G3bp2 1421323_a_at (Group G1, Modules 20) / Gm9706///Isg15 1431591_s_at (Group G1, Modules 20) / H2-T10///H2-T22///H2-T9 1449875_s_at (Group G1, Modules 20) / Ifih1 1426276_at (Group G1, Modules 20) / Ifit1 1450783_at (Group G1, Modules 20) / Ifit3 1449025_at (Group G1, Modules 20) / Irf7 1417244_a_at (Group G1, Modules 20) / Irgm1 1418825_at (Group G1, Modules 20) / Mndal 1426906_at (Group G1, Modules 20) / Pml 1448757_at (Group G1, Modules 20) / Pml 1456103_at (Group G1, Modules 20) / Rnf213 1455500_at (Group G1, Modules 20) / Rsad2 1436058_at (Group G1, Modules 20) / Shisa5 1423986_a_at (Group G1, Modules 20) / Shisa5 1437503_a_at (Group G1, Modules 20) / Stat1 1450033_a_at (Group G1, Modules 20): ID, LV
# Outline: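 Per-sample fold-change values converted to gene-wise z-scores within each organ's data set, then triplicate z-scores summed per adjuvant. Genes with summed score >3 taken as preferentially expressed; gene groups defined by combined per-adjuvant z-score thresholds (z>1 to z>3) specific to each organ.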
# [2] = system: inguinal lymph nodes (LN); assay: Whole organ transcriptome (GeneChip microarray) of draining inguinal lymph nodes 6 h after adjuvant administration: sDEGs, gene modules, hierarchical clustering; for adjuvant group (cluster) in LN: key: G1 (interferon signaling); G2 (metabolism of lipids and lipoproteins); G3 (response to stress); G4 (response to wounding); G5 (phosphate-containing compound metabolic process); G6 (phagosome)
# [3] = system: spleen (SP); assay: Whole organ transcriptome (GeneChip microarray) of spleen 6 h after adjuvant administration: sDEGs, hierarchical clustering; for adjuvant group (cluster) in SP: key: G1 (interferon signaling); G2 (metabolism of lipids and lipoproteins); G3 (response to stress); G4 (response to wounding); G5 (phosphate-containing compound metabolic process); G6 (phagosome)
smiles,measurement,setting,value
"Nc1nc2c(ncn2[C@@H]2O[C@@H]3COP(=O)(O)O[C@H]4[C@@H](O)[C@H](n5cnc6c(N)ncnc65)O[C@@H]4COP(=O)(O)O[C@@H]2[C@@H]3O)c(=O)[nH]1 [cGAMP, Cyclic [G(2′,5′)pA(3′,5′)p]]","Stat1 1450034_at (Group G1, Modules 20)",[1]; sample x1,2.46
same,"Tdrd7 1426716_at (Group G1, Modules 20)",[1]; sample x1,2.18
same,"Tor1aip2 1418115_s_at (Group G1, Modules 20)",[1]; sample x1,2.9
same,"Tor1aip2 1418116_at (Group G1, Modules 20)",[1]; sample x1,2.41
same,"Tor1aip2 1435526_at (Group G1, Modules 20)",[1]; sample x1,2.32
same,"Trim12a 1437432_a_at (Group G1, Modules 20)",[1]; sample x1,2.07
same,"Uba7 1426970_a_at (Group G1, Modules 20)",[1]; sample x1,2.06
same,"Adar 1425405_a_at (Group G1, Modules 20)",[1]; sample x2,2.38
same,"Adar 1434268_at (Group G1, Modules 20)",[1]; sample x2,1.71
same,"Ddx58 1436562_at (Group G1, Modules 20)",[1]; sample x2,2.13
same,"Ddx58 1456890_at (Group G1, Modules 20)",[1]; sample x2,2.28
same,"Eif2ak2 1422005_at (Group G1, Modules 20)",[1]; sample x2,2.21
same,"G3bp2 1421323_a_at (Group G1, Modules 20)",[1]; sample x2,2.6
same,"Gm9706///Isg15 1431591_s_at (Group G1, Modules 20)",[1]; sample x2,1.62
same,"H2-T10///H2-T22///H2-T9 1449875_s_at (Group G1, Modules 20)",[1]; sample x2,1.8
same,"Ifih1 1426276_at (Group G1, Modules 20)",[1]; sample x2,1.62
same,"Ifit1 1450783_at (Group G1, Modules 20)",[1]; sample x2,2.63
same,"Ifit3 1449025_at (Group G1, Modules 20)",[1]; sample x2,1.95
same,"Irf7 1417244_a_at (Group G1, Modules 20)",[1]; sample x2,1.62
same,"Irgm1 1418825_at (Group G1, Modules 20)",[1]; sample x2,2.09
same,"Mndal 1426906_at (Group G1, Modules 20)",[1]; sample x2,2.11
same,"Pml 1448757_at (Group G1, Modules 20)",[1]; sample x2,2.02
same,"Pml 1456103_at (Group G1, Modules 20)",[1]; sample x2,1.48
same,"Rnf213 1455500_at (Group G1, Modules 20)",[1]; sample x2,2.34
same,"Rsad2 1436058_at (Group G1, Modules 20)",[1]; sample x2,1.89
same,"Shisa5 1423986_a_at (Group G1, Modules 20)",[1]; sample x2,1.43
same,"Shisa5 1437503_a_at (Group G1, Modules 20)",[1]; sample x2,1.63
same,"Stat1 1450033_a_at (Group G1, Modules 20)",[1]; sample x2,2.52
same,"Stat1 1450034_at (Group G1, Modules 20)",[1]; sample x2,1.97
same,"Tdrd7 1426716_at (Group G1, Modules 20)",[1]; sample x2,2.34
same,"Tor1aip2 1418115_s_at (Group G1, Modules 20)",[1]; sample x2,2.68
same,"Tor1aip2 1418116_at (Group G1, Modules 20)",[1]; sample x2,2.58
same,"Tor1aip2 1435526_at (Group G1, Modules 20)",[1]; sample x2,2.28
same,"Trim12a 1437432_a_at (Group G1, Modules 20)",[1]; sample x2,1.46
same,"Uba7 1426970_a_at (Group G1, Modules 20)",[1]; sample x2,1.28
same,"Adar 1425405_a_at (Group G1, Modules 20)",[1]; sample x3,2.37
same,"Adar 1434268_at (Group G1, Modules 20)",[1]; sample x3,1.8
same,"Ddx58 1436562_at (Group G1, Modules 20)",[1]; sample x3,2.6
same,"Ddx58 1456890_at (Group G1, Modules 20)",[1]; sample x3,2.38
same,"Eif2ak2 1422005_at (Group G1, Modules 20)",[1]; sample x3,2.73
same,"G3bp2 1421323_a_at (Group G1, Modules 20)",[1]; sample x3,2.43
same,"Gm9706///Isg15 1431591_s_at (Group G1, Modules 20)",[1]; sample x3,1.73
same,"H2-T10///H2-T22///H2-T9 1449875_s_at (Group G1, Modules 20)",[1]; sample x3,2.45
same,"Ifih1 1426276_at (Group G1, Modules 20)",[1]; sample x3,1.66
same,"Ifit1 1450783_at (Group G1, Modules 20)",[1]; sample x3,2.63
same,"Ifit3 1449025_at (Group G1, Modules 20)",[1]; sample x3,2.06
same,"Irf7 1417244_a_at (Group G1, Modules 20)",[1]; sample x3,1.62
same,"Irgm1 1418825_at (Group G1, Modules 20)",[1]; sample x3,2.14
same,"Mndal 1426906_at (Group G1, Modules 20)",[1]; sample x3,2.19
same,"Pml 1448757_at (Group G1, Modules 20)",[1]; sample x3,2.49
same,"Pml 1456103_at (Group G1, Modules 20)",[1]; sample x3,1.62
same,"Rnf213 1455500_at (Group G1, Modules 20)",[1]; sample x3,2.18
same,"Rsad2 1436058_at (Group G1, Modules 20)",[1]; sample x3,1.75
same,"Shisa5 1423986_a_at (Group G1, Modules 20)",[1]; sample x3,2.36
same,"Shisa5 1437503_a_at (Group G1, Modules 20)",[1]; sample x3,2.09
same,"Stat1 1450033_a_at (Group G1, Modules 20)",[1]; sample x3,2.85
same,"Stat1 1450034_at (Group G1, Modules 20)",[1]; sample x3,2.26
same,"Tdrd7 1426716_at (Group G1, Modules 20)",[1]; sample x3,2.5
same,"Tor1aip2 1418115_s_at (Group G1, Modules 20)",[1]; sample x3,2.71
same,"Tor1aip2 1418116_at (Group G1, Modules 20)",[1]; sample x3,2.68
same,"Tor1aip2 1435526_at (Group G1, Modules 20)",[1]; sample x3,2.32
same,"Trim12a 1437432_a_at (Group G1, Modules 20)",[1]; sample x3,1.61
same,"Uba7 1426970_a_at (Group G1, Modules 20)",[1]; sample x3,1.91
same,adjuvant group-associated biological features,"[1]; z-score selected genes, TargetMine and IPA upstream cytokine analyses",strongly associated with type I and type II interferon responses
same,"module M40^LN (immune system process; dendritic cells, macrophages, neutrophils, stromal cells)","[2]; LN, 6 h",strongly induced
same,adjuvant group (cluster) in LN,"[2]; hierarchical clustering, lymph node",G1
same,"Number of gene probes with statistically significant changes (sDEGs), LN, Down","[2]; i.d. administration, lymph node, fold change <0.667, p<0.01, customized PA call=1, 6 h after adjuvant",255
same,"Number of gene probes with statistically significant changes (sDEGs), LN, Up","[2]; i.d. administration, lymph node, fold change >1.5, p<0.01, customized PA call=1, 6 h after adjuvant",1135
same,adjuvant group (cluster) in SP,[3]; hierarchical clustering,G1
same,"Number of gene probes with statistically significant changes (sDEGs), SP, Down","[3]; i.d. administration, fold change <0.667, p<0.01, customized PA call=1, 6 h after adjuvant",93
same,"Number of gene probes with statistically significant changes (sDEGs), SP, Up","[3]; i.d. administration, fold change >1.5, p<0.01, customized PA call=1, 6 h after adjuvant",680
